According to PubChem BioAssay (NCI):
Where “and” joins values, the source holds several entries; their conditions need not be identical. Equal entries are not always repeated.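 Values below derive from 48-hour exposures of cells grown in 96-well plates, with endpoints linearly interpolated between the two concentrations bracketing the appropriate inhibition level. Here, GI50 denotes the concentration required for 50% inhibition of growth. TGI is the concentration that stops growth completely.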

Experiments:
Assay in all cases: NCI-60 cell line screen, 48 h
NCI/ADR-RES ovarian = test system: NCI/ADR-RES ovarian
SF-295 CNS = test system: SF-295 CNS
MDA-MB-435 = test system: MDA-MB-435
HS 578T breast = test system: HS 578T breast
PC-3 prostate = test system: PC-3 prostate
SF-268 CNS = test system: SF-268 CNS
LOX IMVI melanoma = test system: LOX IMVI melanoma
ACHN renal = test system: ACHN renal
SK-MEL-2 melanoma = test system: SK-MEL-2 melanoma
SW-620 colon = test system: SW-620 colon

| Structure (SMILES) | GI50 (NCI/ADR-RES ovarian) | TGI (NCI/ADR-RES ovarian) | GI50 (SF-295 CNS) | TGI (SF-295 CNS) | GI50 (MDA-MB-435) | TGI (MDA-MB-435) | GI50 (HS 578T breast) | TGI (HS 578T breast) | GI50 (PC-3 prostate) | TGI (PC-3 prostate) | GI50 (SF-268 CNS) | TGI (SF-268 CNS) | GI50 (LOX IMVI melanoma) | TGI (LOX IMVI melanoma) | GI50 (ACHN renal) | TGI (ACHN renal) | GI50 (SK-MEL-2 melanoma) | TGI (SK-MEL-2 melanoma) | GI50 (SW-620 colon) | TGI (SW-620 colon) |
| --- | --- | --- | --- | --- | --- | --- | --- | --- | --- | --- | --- | --- | --- | --- | --- | --- | --- | --- | --- | --- |
| O=C(CC(O)c1ccncc1)c1ccccc1 (stereo not given) | 29.8 µM | > 100 µM | 27.7 µM | > 100 µM | 20.8 µM | 56.5 µM | 36.4 µM | > 100 µM | 23.3 µM | > 100 µM | 37.1 µM | > 100 µM | 20.9 µM | 49.5 µM | 25.9 µM | > 100 µM | 21.2 µM | 55.3 µM | 32.2 µM | > 100 µM |
| O=C(NCC(=O)N1CC[C@H](NC2CCC(O)(c3ccc(-c4ncccn4)cn3)CC2)C1)c1cccc(C(F)(F)F)c1 (stereo not given in full) | > 100 µM | > 100 µM | 38.2 µM | > 100 µM | > 100 µM | > 100 µM | 48.9 µM | > 100 µM | 51.6 µM | > 100 µM | > 100 µM | > 100 µM | 32.3 µM | > 100 µM | > 100 µM | > 100 µM | > 100 µM | > 100 µM | > 100 µM | > 100 µM |
| Cc1[nH]n(-c2ccc(S(=O)(=O)O)cc2)c(=O)c1N=Nc1ccccc1 | – | > 100 µM | – | > 100 µM | – | > 100 µM | – | > 100 µM | – | > 100 µM | – | > 100 µM | – | > 100 µM | – | > 100 µM | – | > 100 µM | – | > 100 µM |
| COc1cc(OC)c2cc(C(=O)O)c(=O)oc2c1 | > 100 µM | > 100 µM | 42.2 µM | > 100 µM | > 100 µM | > 100 µM | – | > 51.4 µM | > 100 µM | > 100 µM | > 100 µM | > 100 µM | > 100 µM | > 100 µM | > 100 µM | > 100 µM | > 35.6 µM | > 53.8 µM | > 100 µM | > 100 µM |
| COc1cc(C2CC(c3ccc(Nc4ccnc5cc(Cl)ccc45)cc3)=NN2C=O)cc(OC)c1OC (stereo not given) | 7.88 µM | > 100 µM | 5.63 µM | 27.7 µM | 2.1 µM | 5.4 µM | 3.24 µM | 27.7 µM | 11.7 µM | > 100 µM | 28 µM | > 100 µM | 1.89 µM | 3.85 µM | 3.24 µM | 10.6 µM | – | – | 3.49 µM | 17.7 µM |
| COc1cc2c(cc1OCCCCCn1c(-c3ccco3)nc3ccccc31)N=C[C@@H]1CCCN1C2=O | 0.295 µM | – | < 0.01 µM | 0.0227 µM | < 0.01 µM | < 0.01 µM | < 0.01 µM | < 0.0349 µM | < 0.01 µM | > 100 µM | < 0.01 µM | – | – | – | – | – | < 0.0147 µM | 0.07 µM | < 0.01 µM | 10.1 µM |
| CC(C)=CCc1ccc(O)c(=O)cc1C(C)C | 0.336 µM | 2.74 µM | 0.939 µM | > 36.9 µM | 0.814 µM | > 100 µM | 48.1 µM | > 100 µM | 1.13 µM | > 100 µM | 0.671 µM | > 100 µM | 0.327 µM | > 22.9 µM | 0.484 µM | > 100 µM | 2.06 µM | > 85.7 µM | 0.566 µM | > 100 µM |
| O=C1CSC(=S)N1Cc1cccnc1 | 24 µM | > 100 µM | 37.7 µM | > 100 µM | 3.53 µM | 17.1 µM | 17 µM | 66.1 µM | 16.2 µM | > 100 µM | 5.75 µM | 23.3 µM | 2.58 µM | 12.5 µM | 6.14 µM | 19.5 µM | 4.21 µM | 16.5 µM | 4.13 µM | 16.8 µM |
| COc1ccc2cc3[n+](cc2c1OC)CCc1cc2c(cc1-3)OCO2 | > 100 µM and 323 µM | > 325 µM | – | > 100 µM and 147 µM | 7.35 µM | 25.8 µM and 27 µM and 40.5 µM | – | > 100 µM and 87.1 µM and 40.7 µM | 6.61 µM | > 100 µM | 4.68 µM | – | – | > 201 µM | – | > 100 µM | 11.4 µM and 17.5 µM | – | 14.8 µM and 25.2 µM | > 100 µM and > 73.8 µM and 170 µM |
| O=C(Nc1ccc(Cl)cc1)c1ccc([N+](=O)[O-])o1 | 2.55 µM | 11.4 µM | 3.29 µM | 12.3 µM | 2.25 µM | 6.2 µM | 2.81 µM | 18.6 µM | 2.35 µM | > 30.3 µM | 2.98 µM | 11.8 µM | 1.34 µM | 2.97 µM | 1.95 µM | 4.07 µM | 2.76 µM | 6.53 µM | 1.12 µM | 2.68 µM |
| COc1cc(C(=O)N2CCN(c3ccccc3OC)CC2)c(N)cc1OCc1ccccc1 | 33.5 µM | > 100 µM | 40.3 µM | > 100 µM | 28.1 µM | 76.5 µM | 42.7 µM | > 100 µM | 23.8 µM | > 100 µM | 43.8 µM | > 100 µM | 27.2 µM | 71.3 µM | 32.4 µM | > 100 µM | 28.2 µM | 66.8 µM | 41.1 µM | > 100 µM |
| CN(C)c1ccc(/C=C/c2ccnc3ccccc23)cc1N | – | 53.9 µM | – | 27.7 µM | – | 8.06 µM | – | 61.3 µM | – | 22 µM | – | 23.2 µM | – | 32.6 µM | – | 24.1 µM | – | 21.3 µM | – | 33.3 µM |
| Nc1nc(Cl)c(N=Nc2ccc(Cl)cc2)c(NCC2(CO)CC(OCc3ccccc3)C2)n1 (stereo not given) | 6.55 µM and 9.08 µM and 3.98 µM | 77.8 µM and > 100 µM and 16.2 µM | 22.2 µM and 45 µM and 13.4 µM | 99.5 µM and > 100 µM and 30.8 µM | – | 14.2 µM and > 100 µM and 59.2 µM | 7.33 µM and 29.1 µM and 8.36 µM | 36.2 µM and > 100 µM and > 53.7 µM | 42.8 µM and 10.9 µM | 77.5 µM and > 100 µM and 26.5 µM | – | 61.1 µM and > 100 µM and > 61 µM | 2.04 µM and 18.1 µM and 2.72 µM | 20.7 µM and > 100 µM and 11.3 µM | 2.6 µM | 20.3 µM and 3.55 µM and 3.47 µM | 17.3 µM and > 31.3 µM and 13.6 µM | 61.4 µM and > 100 µM and 28 µM | – | > 100 µM and 20 µM |
| O=C1c2cccc3cccc(c23)C(=O)N1CCCCN1CCN(CCCCOc2ccc(-c3nc4ccc(N5CCOCC5)cc4[nH]3)cc2)CC1 | > 100 µM | > 100 µM | > 100 µM | > 100 µM | > 100 µM | > 100 µM | > 100 µM | > 100 µM | – | – | > 100 µM | > 100 µM | 9.78 µM | > 100 µM | 3.19 µM | > 100 µM | > 100 µM | > 100 µM | > 100 µM | > 100 µM |
